How the values were obtained:
[1] = tested on: S. aureus ATCC 13709 (Smith); experiment: Murine systemic infection (septicemia) model with intraperitoneal challenge of S. aureus; type: in vivo; details: CD-1 female mice, i.v. one hour post-challenge, SA Smith septicemia, survival after 48 hours, Probit analysis
Protocol: Murine Systemic Infection Model with Intraperitoneal Challenge of S. aureus
In the model, CD-1 female mice (18-20 grams) were injected intraperitoneally with S. aureus ATCC 13709 (Smith) (1-2×10^6/mouse) mixed with 5% hog gastric mucin, a bacterial inoculum previously established through virulence studies required to achieve 90-100% lethality within 24-48 hours. Typically, six mice were treated intravenously per dose group one hour post-challenge with either compound 101, compound 105, compound 145, compound 153, compound 166, and compound 218, tetracycline or tigecycline at doses ranging from 0.05-10 mg/kg. After 48 hours, percent survival was calculated and the dose (mg/kg) effecting 50% survival, the protective dose 50% (PD50), was reported along as calculated by Probit analysis.
The PD50 values of compound 101, compound 105, compound 145, compound 153, compound 166, and compound 218 and comparators tigecycline and tetracycline in the S. aureus ATCC 13709 mouse septicemia model are described in Table 6.

[2] = tested on: P. aeruginosa ATCC 27853 (PA111, wt, control); experiment: MIC assay, PA111; type: cell-based; details: numeric MIC of control compounds
Protocol: (§1) Minimum Inhibitory Concentration (MIC) Assay
(§2) MICs were determined according to the Clinical and Laboratory Standards Institute (CLSI) guidances (e.g., CLSI. Performance standards for antimicrobial susceptibility testing; nineteenth information supplement. CLSI document M100-S19, CLSI, 940 West Valley Road, Suite 1400, Wayne, Pa. 19087-1898, USA, 2009). Briefly, frozen bacterial strains were thawed and subcultured onto Mueller Hinton Broth (MHB) or other appropriate media (Streptococcus requires blood and Haemophilus requires hemin and NAD). Following incubation overnight, the strains were subcultured onto Mueller Hinton Agar and again incubated overnight. […] Isolated colonies were selected to prepare a starting inoculum equivalent to a 0.5 McFarland standard. The starting inoculum was diluted 1:125 using MHB for further use. Test compounds were prepared by dilution in sterile water to a final concentration of 5.128 mg/mL. Antibiotics (stored frozen, thawed and used within 3 hours of thawing) and compounds were further diluted to the desired working concentrations.
(§3) The assays were run as follows. Fifty μL of MHB was added to wells 2-12 of a 96-well plate. One hundred μL of appropriately diluted antibiotics was added to well 1. Fifty μL of antibiotics was removed from well 1 and added to well 2 and the contents of well 2 mixed by pipetting up and down five times. Fifty μL of the mixture in well 2 was removed and added to well 3 and mixed as above. Serial dilutions were continued in the same manner through well 12. Fifty μL was removed from well 12 so that all contained 50 μL. Fifty μL of the working inoculum was then added to all test wells. A growth control well was prepared by adding 50 μL of working inoculum and 50 μL of MHB to an empty well. The plates were then incubated at 37° C. overnight, removed from the incubator and each well was read on a plate reading mirror. The lowest concentration (MIC) of test compound that inhibited the growth of the bacteria was recorded.
(§4) Fifteen bacterial strains, listed below, were examined in minimum inhibitory concentration (MIC) assays.

[3] = tested on: E. cloacae ATCC 13047 (EC108, wt); experiment: MIC assay, EC108; type: cell-based; details: numeric MIC of control compounds
Protocol: as §1, §2, §3, §4

[4] = tested on: E. coli ATCC 25922 (EC107, wt, control); experiment: MIC assay, EC107; type: cell-based; details: numeric MIC of control compounds
Protocol: as §1, §2, §3, §4

[5] = tested on: K. pneumoniae ATCC 13883 (KP109, wt); experiment: MIC assay, KP109; type: cell-based; details: numeric MIC of control compounds
Protocol: as §1, §2, §3, §4

[6] = tested on: A. baumanii ATCC 19606 (AB110, wt); experiment: MIC assay, AB110; type: cell-based; details: numeric MIC of control compounds
Protocol: as §1, §2, §3, §4

COc1cc(NC(=O)CN2CCCC2)c(O)c2c1C[C@H]1C[C@H]3[C@H](N(C)C)C(O)=C(C(N)=O)C(=O)[C@@]3(O)C(O)=C1C2=O [Compound 101]
PD50 (protective dose 50%, dose effecting 50% survival) [1]: 0.36 mg/kg

COc1cc(NC(=O)CN(C)C)c(O)c2c1C[C@H]1C[C@H]3[C@H](N(C)C)C(O)=C(C(N)=O)C(=O)[C@@]3(O)C(O)=C1C2=O [Compound 105]
PD50 (protective dose 50%, dose effecting 50% survival) [1]: 0.25 mg/kg

COc1cc(NS(=O)(=O)c2ccccc2)c(O)c2c1C[C@H]1C[C@H]3[C@H](N(C)C)C(O)=C(C(N)=O)C(=O)[C@@]3(O)C(O)=C1C2=O [Compound 153]
PD50 (protective dose 50%, dose effecting 50% survival) [1]: >10 mg/kg

COc1cc(NS(=O)(=O)CC(C)C)c(O)c2c1C[C@H]1C[C@H]3[C@H](N(C)C)C(O)=C(C(N)=O)C(=O)[C@@]3(O)C(O)=C1C2=O [Compound 166]
PD50 (protective dose 50%, dose effecting 50% survival) [1]: 4.3 mg/kg

CCN(C)CC(=O)Nc1cc(OC(F)(F)F)c2c(c1O)C(=O)C1=C(O)[C@]3(O)C(=O)C(C(N)=O)=C(O)[C@@H](N(C)C)[C@@H]3C[C@@H]1C2 [Compound 218]
PD50 (protective dose 50%, dose effecting 50% survival) [1]: 1.4 mg/kg

CN(C)c1ccc(O)c2c1C[C@H]1C[C@H]3[C@H](N(C)C)C(O)=C(C(N)=O)C(=O)[C@@]3(O)C(O)=C1C2=O [Minocycline]
MIC PA111 [2]: 16 µg/mL
MIC EC108 [3]: 2 µg/mL
MIC EC107 [4]: 0.5 µg/mL
MIC KP109 [5]: 1 µg/mL
MIC AB110 [6]: 0.06 µg/mL

CN(C)[C@@H]1C(O)=C(C(N)=O)C(=O)[C@@]2(O)C(O)=C3C(=O)c4c(O)cccc4C[C@H]3C[C@@H]12 [Sancycline]
MIC PA111 [2]: > 32 µg/mL
MIC EC108 [3]: 8 µg/mL
MIC EC107 [4]: 8 µg/mL
MIC KP109 [5]: 8 µg/mL
MIC AB110 [6]: 0.25 µg/mL

CN(C)[C@@H]1C(O)=C(C(N)=O)C(=O)[C@@]2(O)C(O)=C3C(=O)c4c(O)cccc4[C@@](C)(O)[C@H]3C[C@@H]12 [Tetracycline, tetracycline]
PD50 (protective dose 50%, dose effecting 50% survival) [1]: 1.0 mg/kg

CN(C)c1cc(NC(=O)CNC(C)(C)C)c(O)c2c1C[C@H]1C[C@H]3[C@H](N(C)C)C(O)=C(C(N)=O)C(=O)[C@@]3(O)C(O)=C1C2=O [Tigecycline, tigecycline]
MIC PA111 [2]: 8 µg/mL
MIC EC108 [3]: 0.25 µg/mL
MIC EC107 [4]: 0.03 µg/mL
MIC KP109 [5]: 0.125 µg/mL
PD50 (protective dose 50%, dose effecting 50% survival) [1]: 0.97 mg/kg
MIC AB110 [6]: 0.25 µg/mL

Reference: US9624166B2, “Tetracycline compounds” (Tetraphase Pharmaceuticals, Inc., priority 2009, dated 2017)
